In US9808426B2, “Ternary mixture formulations” (priority 2011, dated 2017):

Columns and labels:
[1] = In vivo pharmacokinetic analysis after oral administration to jugular vein-cannulated rats; conditions: fenofibrate 145 mg/70 kg, plasma fenofibric acid
Method: The study was performed on jugular vein-cannulated rats weighing from 200 to 250 gm (n=4). […] Blood samples were collected at various time intervals over a 48 hour period after administration. The samples were collected into heparinized tubes through the jugular vein cannulation, centrifuged at 5000 rpm for 5 minutes. Each 50 μl plasma sample was treated with 10 μl of 50% methanol and 10 μl of an internal standard (Indomethacin), and then mixed by vortexing for 30 seconds. To that mixture, 200 μl of acetonitrile was added, followed by one minute of vortexing, centrifugation at 14,000 rpm for five minutes. […] Indomethacin was used as an internal standard for the LCMS analyis. Standard non-compartmental pharmacokinetic parameters were calculated. Briefly, noncompartmental pharmacokinetic analysis is dependent on estimation of total drug exposure. Total drug exposure is most often estimated by area under the curve (AUC) using the trapezoidal rule (numerical integration) method. Due to the dependence on the length of ‘x’ in the trapezoidal rule, the area estimation is dependent on the blood/plasma sampling schedule. That is, the closer time points are, the closer the trapezoids reflect the actual shape of the concentration-time curve.

[2] = In vitro dissolution, USP Type II apparatus, simulated gastric fluid pH 1.2 without enzymes; type: physicochemical; conditions: itraconazole 100 mg, 900 ml simulated gastric fluid pH 1.2, 100 rpm, 37°C
Method: The dissolution profile of pure itraconazole was compared to the dissolution profile itraconazole from the free-flowing powder formulation that was made by the process described in Example 3. The amount of free flowing powder formulation used in the dissolution studies was equivalent to amount of the formulation containing 100 mg of itraconazole. The amount of pure itraconazole used as a control in the studies was also 100 mg. […] The analysis was performed using a USP Type II dissolution apparatus with the paddle speed and temperature maintained at 100 rpm and 37±0.5° C. Three ml aliquots were removed at 10, 20, 30, 45 and 60 minute intervals. Subsequently, the amount of itraconazole in each of the aliquots was determined by using an HP Agilent® 1100 series HPLC system (Agilent Technologies, Inc., Santa Clara, Calif.). The mobile phase solution used in the HPLC system consisted of 65% acetonitrile and 35% 10 mM potassium dihydrogen phosphate. The solution was pumped through a Phenomenex® Luna 5 μm C-18 (dimension: 150 mm×4.6 mm) column (Phenomenex Corp., Torrance Calif.) at a flow rate of 1.3 ml/min. Itraconazole was detected at a wavelength of 263 nm. […] Subsequently, the amount of itraconazole in each of the aliquots was determined by using an HP Agilent® 1100 series HPLC system (Agilent Technologies, Inc., Santa Clara, Calif.). […] Itraconazole was detected at a wavelength of 263 nm. […]

Which results are given for `CCC(C)n1ncn(-c2ccc(N3CCN(c4ccc(OCC5COC(Cn6cncn6)(c6ccc(Cl)cc6Cl)O5)cc4)CC3)cc2)c1=O` (centres unmarked) [pure drug, itraconazole]?
AUMC0-t [1]: 436.7 µg·h/mL; CL [1]: 0.07 L/h; Cmax [1]: 7200 ng/mL; MRT (mean residence time) [1]: 9.15 h; t1/2 [1]: 7.18 h; tmax [1]: 2.5 h; AUC0-t (AUC0-48) ([1]; over 48 hours): 51 µg·h/mL; drug release in 10 min [2]: less than 1%
